{"source": "the supplement of paper PMC10307832", "data": [{"compound": "C(C(=O)C(=O)O)Br [Bromopyruvate] + Cc1nc(Nc2ncc(C(=O)Nc3c(C)cccc3Cl)s2)cc(N2CCN(CCO)CC2)n1 [Dasatinib] (partner 0.075 µM)", "test": "relative viability (nuclei count vs DMSO), 5 days (fraction); higher = more cells survive", "conditions": "first compound 1 µM", "how_it_was_run": "(§1)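 Relative viability was taken as the ratio of nuclei in treated wells to nuclei in vehicle wells. Lung cancer cell lines in 1536-well plates received compounds by pin tool one day after seeding, either one drug alone or a fixed anchor-drug dose plus five library-drug doses (not always all listed) in √10 steps. Nuclei were counted on 4× images after 5 days of treatment, and values are medians of duplicate plates.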", "values": [{"cell line": "201T", "relative viability": 0.585}, {"cell line": "NCI-H1915", "relative viability": 0.331}, {"cell line": "HCC-827", "relative viability": 0.249}, {"cell line": "LXF-289", "relative viability": 0.278}, {"cell line": "NCI-H2347", "relative viability": 0.331}, {"cell line": "NCI-H650", "relative viability": 0.523}, {"cell line": "CAL-12T", "relative viability": 0.488}, {"cell line": "NCI-H1651", "relative viability": 0.409}, {"cell line": "EPLC-272H", "relative viability": 0.354}, {"cell line": "NCI-H23", "relative viability": 0.721}, {"cell line": "NCI-H1355", "relative viability": 0.674}, {"cell line": "NCI-H322M", "relative viability": 0.253}, {"cell line": "NCI-H1437", "relative viability": 0.491}, {"cell line": "NCI-H1755", "relative viability": 0.439}, {"cell line": "NCI-H2085", "relative viability": 0.246}, {"cell line": "HCC-15", "relative viability": 0.654}, {"cell line": "NCI-H1793", "relative viability": 0.385}, {"cell line": "PC-3 [JPC-3]", "relative viability": 1.06}, {"cell line": "EKVX", "relative viability": 0.433}, {"cell line": "LC-2-ad", "relative viability": 0.765}, {"cell line": "NCI-H1944", "relative viability": 0.235}, {"cell line": "NCI-H1975", "relative viability": 0.369}, {"cell line": "SK-LU-1", "relative viability": 0.171}, {"cell line": "ABC-1", "relative viability": 0.692}]}, {"compound": "C(C(=O)C(=O)O)Br [Bromopyruvate] + Cc1nc(Nc2ncc(C(=O)Nc3c(C)cccc3Cl)s2)cc(N2CCN(CCO)CC2)n1 [Dasatinib] (partner 0.075 µM)", "test": "relative viability (nuclei count vs DMSO), 5 days (fraction); higher = more cells survive", "conditions": "first compound 3.162 µM", "how_it_was_run": "as §1", "values": [{"cell line": "LCLC-97TM1", "relative viability": 0.898}, {"cell line": "NCI-H2023", "relative viability": 0.566}, {"cell line": "A-427", "relative viability": 0.688}, {"cell line": "NCI-H460", "relative viability": 0.509}, {"cell line": "NCI-H727", "relative viability": 0.301}, {"cell line": "NCI-H1734", "relative viability": 0.436}, {"cell line": "NCI-H520", "relative viability": 0.222}, {"cell line": "NCI-H2405", "relative viability": 0.218}, {"cell line": "SW 1573", "relative viability": 0.684}, {"cell line": "NCI-H1395", "relative viability": 0.386}, {"cell line": "201T", "relative viability": 0.575}, {"cell line": "NCI-H1915", "relative viability": 0.326}, {"cell line": "HCC-827", "relative viability": 0.366}, {"cell line": "LXF-289", "relative viability": 0.214}, {"cell line": "NCI-H2347", "relative viability": 0.297}, {"cell line": "NCI-H650", "relative viability": 0.442}, {"cell line": "CAL-12T", "relative viability": 0.341}, {"cell line": "NCI-H1651", "relative viability": 0.462}, {"cell line": "EPLC-272H", "relative viability": 0.309}, {"cell line": "NCI-H23", "relative viability": 0.794}, {"cell line": "NCI-H1355", "relative viability": 0.761}, {"cell line": "NCI-H322M", "relative viability": 0.258}, {"cell line": "NCI-H1437", "relative viability": 0.493}, {"cell line": "NCI-H1755", "relative viability": 0.46}, {"cell line": "NCI-H2085", "relative viability": 0.243}, {"cell line": "HCC-15", "relative viability": 0.633}, {"cell line": "NCI-H1793", "relative viability": 0.402}, {"cell line": "PC-3 [JPC-3]", "relative viability": 1.03}, {"cell line": "EKVX", "relative viability": 0.547}, {"cell line": "LC-2-ad", "relative viability": 0.671}, {"cell line": "NCI-H1944", "relative viability": 0.255}, {"cell line": "NCI-H1975", "relative viability": 0.4}, {"cell line": "SK-LU-1", "relative viability": 0.153}, {"cell line": "ABC-1", "relative viability": 0.492}]}, {"compound": "C(C(=O)C(=O)O)Br [Bromopyruvate] + Cc1nc(Nc2ncc(C(=O)Nc3c(C)cccc3Cl)s2)cc(N2CCN(CCO)CC2)n1 [Dasatinib] (partner 0.075 µM)", "test": "relative viability (nuclei count vs DMSO), 5 days (fraction); higher = more cells survive", "conditions": "first compound 10 µM", "how_it_was_run": "as §1", "values": [{"cell line": "LCLC-97TM1", "relative viability": 0.835}, {"cell line": "NCI-H2023", "relative viability": 0.661}, {"cell line": "A-427", "relative viability": 0.685}, {"cell line": "NCI-H460", "relative viability": 0.502}, {"cell line": "NCI-H727", "relative viability": 0.29}, {"cell line": "NCI-H1734", "relative viability": 0.548}, {"cell line": "NCI-H520", "relative viability": 0.154}, {"cell line": "NCI-H2405", "relative viability": 0.209}, {"cell line": "SW 1573", "relative viability": 0.492}, {"cell line": "NCI-H1395", "relative viability": 0.457}, {"cell line": "201T", "relative viability": 0.613}, {"cell line": "NCI-H1915", "relative viability": 0.319}, {"cell line": "HCC-827", "relative viability": 0.329}, {"cell line": "LXF-289", "relative viability": 0.262}, {"cell line": "NCI-H2347", "relative viability": 0.322}, {"cell line": "NCI-H650", "relative viability": 0.487}, {"cell line": "CAL-12T", "relative viability": 0.409}, {"cell line": "NCI-H1651", "relative viability": 0.527}, {"cell line": "EPLC-272H", "relative viability": 0.462}, {"cell line": "NCI-H23", "relative viability": 1.1}, {"cell line": "NCI-H1355", "relative viability": 0.766}, {"cell line": "NCI-H322M", "relative viability": 0.248}, {"cell line": "NCI-H1437", "relative viability": 0.427}, {"cell line": "NCI-H1755", "relative viability": 0.469}, {"cell line": "NCI-H2085", "relative viability": 0.234}, {"cell line": "HCC-15", "relative viability": 0.606}, {"cell line": "NCI-H1793", "relative viability": 0.415}, {"cell line": "PC-3 [JPC-3]", "relative viability": 1.06}, {"cell line": "EKVX", "relative viability": 0.578}, {"cell line": "LC-2-ad", "relative viability": 0.634}, {"cell line": "NCI-H1944", "relative viability": 0.213}, {"cell line": "NCI-H1975", "relative viability": 0.349}, {"cell line": "SK-LU-1", "relative viability": 0.19}, {"cell line": "ABC-1", "relative viability": 0.62}]}, {"compound": "C(C(=O)C(=O)O)Br [Bromopyruvate] + Cc1nc(Nc2ncc(C(=O)Nc3c(C)cccc3Cl)s2)cc(N2CCN(CCO)CC2)n1 [Dasatinib] (partner 0.075 µM)", "test": "relative viability (nuclei count vs DMSO), 5 days (fraction); higher = more cells survive", "conditions": "first compound 31.62 µM", "how_it_was_run": "as §1", "values": [{"cell line": "LCLC-97TM1", "relative viability": 0.763}, {"cell line": "NCI-H2023", "relative viability": 0.573}, {"cell line": "A-427", "relative viability": 0.669}, {"cell line": "NCI-H460", "relative viability": 0.539}, {"cell line": "NCI-H727", "relative viability": 0.401}, {"cell line": "NCI-H1734", "relative viability": 0.44}, {"cell line": "NCI-H520", "relative viability": 0.251}, {"cell line": "NCI-H2405", "relative viability": 0.19}, {"cell line": "SW 1573", "relative viability": 0.276}, {"cell line": "NCI-H1395", "relative viability": 0.423}, {"cell line": "201T", "relative viability": 0.574}, {"cell line": "NCI-H1915", "relative viability": 0.275}, {"cell line": "HCC-827", "relative viability": 0.326}, {"cell line": "LXF-289", "relative viability": 0.27}, {"cell line": "NCI-H2347", "relative viability": 0.292}, {"cell line": "NCI-H650", "relative viability": 0.439}, {"cell line": "CAL-12T", "relative viability": 0.539}, {"cell line": "NCI-H1651", "relative viability": 0.411}, {"cell line": "EPLC-272H", "relative viability": 0.374}, {"cell line": "NCI-H23", "relative viability": 0.775}, {"cell line": "NCI-H1355", "relative viability": 0.713}, {"cell line": "NCI-H322M", "relative viability": 0.235}, {"cell line": "NCI-H1437", "relative viability": 0.317}, {"cell line": "NCI-H1755", "relative viability": 0.464}, {"cell line": "NCI-H2085", "relative viability": 0.263}, {"cell line": "HCC-15", "relative viability": 0.744}, {"cell line": "NCI-H1793", "relative viability": 0.407}, {"cell line": "PC-3 [JPC-3]", "relative viability": 1.02}, {"cell line": "EKVX", "relative viability": 0.689}, {"cell line": "LC-2-ad", "relative viability": 0.54}, {"cell line": "NCI-H1944", "relative viability": 0.196}, {"cell line": "NCI-H1975", "relative viability": 0.442}, {"cell line": "SK-LU-1", "relative viability": 0.171}, {"cell line": "ABC-1", "relative viability": 0.584}]}, {"compound": "C(C(=O)C(=O)O)Br [Bromopyruvate] + Cc1nc(Nc2ncc(C(=O)Nc3c(C)cccc3Cl)s2)cc(N2CCN(CCO)CC2)n1 [Dasatinib] (partner 0.075 µM)", "test": "relative viability (nuclei count vs DMSO), 5 days (fraction); higher = more cells survive", "conditions": "first compound 100 µM", "how_it_was_run": "as §1", "values": [{"cell line": "LCLC-97TM1", "relative viability": 0.957}, {"cell line": "NCI-H2023", "relative viability": 0.562}, {"cell line": "A-427", "relative viability": 0.685}, {"cell line": "NCI-H460", "relative viability": 0.494}, {"cell line": "NCI-H727", "relative viability": 0.314}, {"cell line": "NCI-H1734", "relative viability": 0.365}, {"cell line": "NCI-H520", "relative viability": 0.241}, {"cell line": "NCI-H2405", "relative viability": 0.231}, {"cell line": "SW 1573", "relative viability": 0.0416}, {"cell line": "NCI-H1395", "relative viability": 0.396}, {"cell line": "201T", "relative viability": 0.657}, {"cell line": "NCI-H1915", "relative viability": 0.315}, {"cell line": "HCC-827", "relative viability": 0.317}, {"cell line": "LXF-289", "relative viability": 0.183}, {"cell line": "NCI-H2347", "relative viability": 0.278}, {"cell line": "NCI-H650", "relative viability": 0.576}, {"cell line": "CAL-12T", "relative viability": 0.392}, {"cell line": "NCI-H1651", "relative viability": 0.428}, {"cell line": "EPLC-272H", "relative viability": 0.455}, {"cell line": "NCI-H23", "relative viability": 1.07}, {"cell line": "NCI-H1355", "relative viability": 0.786}, {"cell line": "NCI-H322M", "relative viability": 0.259}, {"cell line": "NCI-H1437", "relative viability": 0.415}, {"cell line": "NCI-H1755", "relative viability": 0.475}, {"cell line": "NCI-H2085", "relative viability": 0.284}, {"cell line": "HCC-15", "relative viability": 0.541}, {"cell line": "NCI-H1793", "relative viability": 0.386}, {"cell line": "PC-3 [JPC-3]", "relative viability": 1.1}, {"cell line": "EKVX", "relative viability": 0.628}, {"cell line": "LC-2-ad", "relative viability": 0.437}, {"cell line": "NCI-H1944", "relative viability": 0.205}, {"cell line": "NCI-H1975", "relative viability": 0.344}, {"cell line": "SK-LU-1", "relative viability": 0.165}, {"cell line": "ABC-1", "relative viability": 0.348}]}]}
